Laboratory results from patent publication US6410529B1, “Phenyl urea and phenyl thiourea derivatives as HFGAN72 antagonists” (SmithKline Beecham p.l.c., priority 1997, dated 2002).
Counter-ions that a name gives are not always drawn.

target: T1, human HFGAN72 receptor (Homo sapiens, UniProt O43613); assay: HFGAN72 receptor antagonist activity, FLIPR intracellular calcium assay against human Lig 72A; type: cell-based; details: HEK293 cells expressing human HFGAN72 receptor; against 3.0 nM human Lig 72A; Kb=IC50/(1+([3/EC50])
T1 construct: expressed in transfected cells; host or cells: HEK293
T1 sequence (O43613 1-425): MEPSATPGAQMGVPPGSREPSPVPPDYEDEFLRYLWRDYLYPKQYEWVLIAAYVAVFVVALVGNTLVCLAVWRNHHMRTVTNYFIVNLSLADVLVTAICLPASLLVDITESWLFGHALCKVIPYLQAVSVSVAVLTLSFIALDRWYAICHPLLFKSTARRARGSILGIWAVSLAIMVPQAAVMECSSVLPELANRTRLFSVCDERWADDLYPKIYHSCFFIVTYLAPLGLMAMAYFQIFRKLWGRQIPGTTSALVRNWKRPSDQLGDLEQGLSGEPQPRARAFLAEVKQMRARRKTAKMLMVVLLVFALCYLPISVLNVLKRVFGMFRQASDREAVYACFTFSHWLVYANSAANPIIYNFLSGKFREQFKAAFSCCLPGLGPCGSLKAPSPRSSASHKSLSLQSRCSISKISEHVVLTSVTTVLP
Experimental: The HFGAN72 receptor antagonist activity of the compounds of formula (I), including those compounds in which X and Y both represent CH and without provisos a)-f), was determined in accordance with the following experimental method.
HEK293 cells expressing the human HFGAN72 receptor were grown in cell medium (MEM medium with Earl's salts) containing 2 mM L-Glutamine, 0.4 mg/mL G418 Sulphate from GIBCO BRL and 10% heat inactivated fetal calf serum from Gibco BRL. The cells were seeded at 20,000 cells/100 μl/well into 96-well black clear bottom sterile plates from Costar which had been pre-coated with 10 μg/well of poly-L-lysine from SIGMA. The seeded plates were incubated overnight at 37° C. in 5% CO2.
Agonists were prepared as 1 mM stocks in water:DMSO (1:1). EC50 values (the concentration required to produce 50% maximal response) were estimated using 11× half log unit dilutions (Biomek 2000, Beckman) in Tyrode's buffer containing probenecid (10 mM HEPES with 145 mM NaCl, 10 mM glucose, 2.5 mM KCl, 1.5 mM CaCl2, 1.2 mM MgCl2 and 2.5 mM probenecid; pH7.4). […] On the day of assay 50 μl of cell medium containing probenecid (Sigma) and Fluo3AM (Texas Fluorescence Laboratories) was added (Quadra, Tomtec) to each well to give final concentrations of 2.5 mM and 4 μM, respectively. […] Cell plates were then transferred to the Fluorescent Imaging Plate Reader (FLIPR, Molecular Devices) instrument and maintained at 37° C. in humidified air. […] Agonists were added (by the FLIPR) after 20 sec (during continuous reading). From each well, peak fluorescence was determined over the whole assay period and the mean of readings 1-19 inclusive was subtracted from this figure. The peak increase in fluorescence was plotted against compound concentration and iteratively curve fitted using a four parameter logistic fit (as described by Bowen and Jerman, 1995, TiPS, 16, 413-417) to generate a concentration effect value. Antagonist Kb values were calculated using the equation: […]
where EC50 was the potency of human Lig72A determined in the assay (in nM terms) and IC50 is expressed in molar terms.

Kb, < 0.1 µM:
CSc1ccc(NC(=O)Nc2ccnc3ccccc23)cc1 [Example 14, 1-(4-Methylthiophenyl)-3-quinolin-4-ylurea hydrochloride]
COc1ccc(NC(=O)Nc2ccnc3ccccc23)cc1Cl [Example 31, 1-(3-Chloro-4-methoxyphenyl)-3-quinolin-4-ylurea hydrochloride]
Cn1ccc2cc(NC(=O)Nc3ccnc4ccccc34)ccc21 [Example 1, 1-(1-Methyl-1H-indol-5-yl)-3-quinolin-4-ylurea]
